Experimental data from patent US20260285817A1, “CRYSTALLINE FORMS OF A 1H-1,2,3-TRIAZOLE-4-CARBOXYLIC ACID COMPOUND” (CANTERO THERAPEUTICS, INC., priority 2023, published 2026).
“Also recorded” adds a separate entry of the source. Like-named read-outs stand apart in the source and are kept apart here.

Tests used:
[1] = Dynamic vapor sorption (DVS) hygroscopicity of Form A; assay type: physicochemical
Procedure: In some embodiments, the crystalline form described herein is further characterized by a dynamic vapor sorption (DVS). In some embodiments, the DVS is recorded using a sample weight of a few milligrams (e.g., about 20 mg) on an ADVENTURE series DVS at 25° C. under nitrogen. In some embodiments, the sample is subjected to the cycle as follows: 1) ambient relative humidity (RH) to 90% RH at a rate of 10% RH and from 90% RH to 95% RH in a rate of 5% RH; 2) 95% RH to 90% RH at a rate of 5% RH and 90% RH to 0% RH at a rate of 10% RH; and 3) 0% RH to 90% RH at a rate of 10% RH and 90% RH to 95% RH in a rate of 5% RH.
Dynamic Vapor Sorption (DVS): Dynamic vapor sorption was performed with an ADVENTURE series DVS at 25° C. under nitrogen blow. Approximately 20 milligrams of material was used. Samples were analyzed using method below: • 1. Ambient relative humidity to 95% RH at 10% RH (5% from 90% RH to 95% RH) • 2. 95% RH to 0% RH at 10% RH (5% RH from 95% RH to 90% RH) • 3. 0% RH to 95% RH at 10% RH (5% RH from 90% RH to 95% RH)
To understand the hygroscopicity of Form A, dynamic vapor sorption (DVS) was employed to measure the mass change as a function of relative humidity at 25° C. Form A was equilibrated at ambient relative humidity before analysis.

[2] = 24-hr pH solubility and form stability in six pH buffers at 25° C.; assay type: physicochemical; details: for solubility at 24 h: aqueous buffer
Procedure: (§1) High Performance Liquid Chromatography (HPLC): HPLC of Agilent 1260 with DAD detector was employed to detect the purity and solubility, with the methods shown in Table 1.
After shaking at 100 rpm at 25° C. for 24 hrs, the suspensions were centrifuged. The solids were analyzed by XRPD for crystal form, and the filtrates of supernatants were analyzed by HPLC for solubility and by pH meter for pH value.

[3] = Solubility in water at various temperatures; assay type: physicochemical; details: for Final Form: XRPD
Procedure: as §1
Solubility in Water at various Temperature: Solubility test was conducted for Form A in water at various temperatures. Specifically, about 3~5 mg Form A sample was added to 1 mL water. After stirring at 750 rpm at desired temperatures (25/35/50/60/70° C.) for 1~2 hrs, solids were isolated for XRPD to check the crystal form and the supernatants were collected for a HPLC analysis to detect the solubility.

[4] = Solubility in 20% EtOH in water and 20% DMAc in water at room temperature; assay type: physicochemical; details: organic solvent or mixture, 20~60 mins
Procedure: as §1
Solubility in Various Solvents: Solubility of Form A was also measured in 20% EtOH in water and 20% DMAc in water at room temperature (rt). Specifically, about 3 mg Form A sample was added to 0.6 mL solvent.

[5] = Critical water activity study, competitive slurry in THF/H2O at rt, XRPD
Procedure: Critical water activity (aw) study was performed for mono-sodium salt Form A (monohydrate), Form E (hemihydrate) and Form D (anhydrate) to investigate the form relationship. It was conducted via competitive slurry in THF/H2O with a series of aw (0~1) at rt. Specifically, ~10 mg staring material was suspended in 0.4 mL THF/H2O (aw of 0, 0.2, 0.4, 0.6, 0.8 and 1.0) at rt. After equilibrium for 2 hrs, collect the filtrates to the HPLC vials containing Form A and Form D with equivalent mass ratio. After stirring magnetically at rt for 1~2 days, collect the solids for XRPD analysis.

## O.O=C([O-])c1nn[nH]c1Oc1ccc(-c2ccc(C3CC(F)(F)C3)cc2)cc1.[Na+] [Form A, sodium 5-((4′-(3,3-difluorocyclobutyl)-[1,1′-biphenyl]-4-yl)oxy)-1H-1,2,3-triazole-4-carboxylate monohydrate]
[1]; 25° C./80% RH compared to starting point (60% RH)
  water uptake: negligible water uptake
[1]; 60% RH to 80% RH, 25° C.
  weight gain, DVS cycle: less than 0.03%
[1]; 80% RH to 60% RH, 25° C.
  weight loss, first dynamic vapor desorption cycle: less than 0.03%
[1]; DVS, 25° C., monohydrate
  hygroscopicity: non-hygroscopic; also recorded: non-hygroscopicity
[1]; broad humidity range, DVS 25° C.
  form stability under humidity: good form stability
[1]; relative humidity below 10% RH, 25° C.
  water lost: ~ 0.6%
[2]; pH 7.0 buffer, 25° C., read-out: Solubility
  solubility at 24 h: 0.055 mg/mL
[2]; pH 8.0 buffer, 25° C., read-out: Solubility
  solubility at 24 h: 0.404 mg/mL
[2]; pH 10.0 buffer, 25° C., read-out: Solubility
  solubility at 24 h: 4.83 mg/mL
[2]; pH 2.0/4.0/6.0, 25° C.
  solubility: limited solubility
[2]; pH 2.0 buffer, 25° C.
  Final pH (measured): pH 2.5
  solubility: <LOD
[2]; pH 2.0 buffer, 25° C., XRPD of solids
  Form Change: Yes
[2]; pH 2.0~7.0, 25° C.
  Form Change: new diffractive peaks
[2]; pH 4.0 buffer, 25° C.
  Final pH (measured): pH 4.4
  solubility: <LOD
[2]; pH 4.0 buffer, 25° C., XRPD of solids
  Form Change: Yes
[2]; pH 6.0 buffer, 25° C.
  Final pH (measured): pH 6.2
  solubility: <LOD
[2]; pH 6.0 buffer, 25° C., XRPD of solids
  Form Change: Yes
[2]; pH 7.0 buffer, 25° C.
  Final pH (measured): pH 7.1
[2]; pH 7.0 buffer, 25° C., XRPD of solids
  Form Change: Yes
[2]; pH 8.0/10.0, 25° C.
  Form Change: no form change
[2]; pH 8.0 buffer, 25° C.
  Final pH (measured): pH 7.4
[2]; pH 8.0 buffer, 25° C., XRPD of solids
  Form Change: No
[2]; pH 10.0 buffer, 25° C.
  Final pH (measured): pH 8.4
[2]; pH 10.0 buffer, 25° C., XRPD of solids
  Form Change: No
[2]; ph buffer, pH 2.0~10.0, 25° C., read-out: solubility as a function of pH
  solubility at 24 h: < 4.8 mg/mL
[3]; 25~70° C., read-out: solubility as a function of temperature
  solubility: 1.1 to 2.3 mg/mL
[3]; 25° C., 1~2 hrs, read-out: Solubility
  solubility: 1.1 mg/mL
[3]; 25° C.
  Final Form: Forms A + C
[3]; 35° C., 1~2 hrs, read-out: Solubility
  solubility: 1.3 mg/mL
[3]; 50° C., 1~2 hrs, read-out: Solubility
  solubility: 1.94 mg/mL
[3]; 60° C., 1~2 hrs, read-out: Solubility
  solubility: 1.86 mg/mL
[3]; 60° C.
  Final Form: Forms A + C
[3]; 70° C., 1~2 hrs, read-out: Solubility
  solubility: 2.32 mg/mL
[3]; various temperatures
  form transformation in water: partial conversion to Form C
[4]; 20% DMAc in water
  solubility: 3.3 mg/mL
[4]; 20% EtOH in water
  solubility: 1.9 mg/mL
[5]; water, aw of 1.0, rt
  relative form stability: more stable than Form D

## O=C([O-])c1nn[nH]c1Oc1ccc(-c2ccc(C3CC(F)(F)C3)cc2)cc1.[Na+]
[5]; THF/H2O, aw of 0~0.8, rt
  relative form stability: more stable than monohydrate Form A and anhydrate Form D
